This experiment has as its target T1, h5-HT4b (Homo sapiens, UniProt Q13639).
T1 construct: expressed in transfected cells; host or cells: HEK 293 (clone 9), membrane preparation
As to the kind of experiment: 5HT4 antagonism: [3H]GR113808 binding to membranes of h5-HT4b-HEK 293 clone 9 cells. Particulars: displacement of [3H]GR113808 0.1 nM, h5-HT4b-HEK 293 membranes, 30 min at 25° C.; read-out: pIC50 (5HT4 antagonistic data) (converted). The protocol: h5-HT4b-HEK 293 clone 9 cells were cultured in 150 mm Petri dishes and washed twice with cold PBS. The cells were then scraped from the plates and suspended in 50 mM Tris-HCl buffer, pH 7.4 and harvested by centrifugation at 23,500 rpm for 10 minutes. The pellet was resuspended in 5 mM Tris-HCl, pH 7.4 and homogenized with an Ultra Turrax homogenizer. The membranes were collected by centrifugation at 30,000 rpm for 20 min, resuspended in 50 mM Tris-HCl pH 7.4 and stored at −80° C. For the experiment, assay mixtures (0.5 ml) contained 50 μl of the tritiated ligand (5-HT4 antagonist [^3H]GR113808 0.1 nM) and 0.4 ml membrane preparation (15 μg protein/ml). 50 μl of 10% DMSO was added for total binding. 50 μl of 1 μM of (+)-trans-(1-butyl-3-hydroxy-4-piperidinyl)methyl 8-amino-7-chloro-2,3-dihydro-1,4-benzodioxin-5-carboxylate (a proprietary 5HT4 agonist of Janssen Pharmaceutica) was added for determination of non-specific binding.
The [^3H]GR113808 assay buffer was 50 mM HEPES-NaOH, pH 7.4. The mixtures were incubated for 30 min at 25° C. The incubation was terminated by filtration over a Unifilter 96 GF/B presoaked in 0.1% polyethylenimine, followed by six washing steps with 50 mM HEPES-NaOH, pH 7.4.
(In a radioligand displacement assay an active substance lowers the binding of a labelled ligand.)

T1 sequence (Q13639 whole entry): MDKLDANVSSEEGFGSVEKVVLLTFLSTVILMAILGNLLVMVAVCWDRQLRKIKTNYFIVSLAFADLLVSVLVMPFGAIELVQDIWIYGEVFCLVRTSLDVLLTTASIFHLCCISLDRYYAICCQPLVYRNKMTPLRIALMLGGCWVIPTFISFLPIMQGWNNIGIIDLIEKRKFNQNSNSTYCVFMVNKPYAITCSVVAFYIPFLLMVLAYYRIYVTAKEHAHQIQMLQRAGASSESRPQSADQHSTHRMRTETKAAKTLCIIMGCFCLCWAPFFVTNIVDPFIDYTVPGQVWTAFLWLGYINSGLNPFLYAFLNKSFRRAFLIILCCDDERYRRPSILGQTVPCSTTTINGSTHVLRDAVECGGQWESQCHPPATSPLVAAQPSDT

Regarding `CCCNc1cc2c(c(C(=O)NC[C@@H]3CCN(CCCO)C[C@H]3O)c1)OCCCO2` [compound 151], the IC50 is 89.1 nM.
Turning to `Nc1cc(C(=O)NC[C@@H]2CCNC[C@H]2O)c2c(c1Br)OCCCO2` [compound 142], the IC50 was 1150 nM.
The result for `CC1(CCCN2CC[C@H](CNC(=O)c3cc(C#N)cc4c3OCCCO4)[C@@H](O)C2)OCCO1` [compound 220] reads 2.51 nM.
`Cc1cc2c(c(C(=O)NC[C@@H]3CCNC[C@H]3O)c1)OCCCO2` [compound 5]: the IC50 was 64.6 nM.
In the case of `CNc1cc2c(c(C(=O)NC[C@@H]3CCN(CCNc4nccnc4C)C[C@H]3O)c1)OCCCO2` [compound 95] it was 36.3 nM; in that of `CNCCCCN1CC[C@@H](CNC(=O)c2cc(N)cc3c2OCCO3)[C@H](O)C1` [compound 104], 33.9 nM.
For `CCCCNc1cc2c(c(C(=O)NC[C@@H]3CCN(CCCO)C[C@H]3O)c1)OCCCO2` [compound 156], the IC50 is 46.8 nM.
With `Nc1cc(C(=O)NC[C@@H]2CCN(CCC3OCCO3)C[C@H]2O)c2c(c1Cl)OCCCO2` [compound 52], the IC50 was 14.8 nM.
In the case of `CNCCCCN1CC[C@@H](CNC(=O)c2cc(C#N)cc3c2OCCCO3)[C@H](O)C1` [compound 171] it was 1.62 nM; in that of `COCCCN1CC[C@H](CNC(=O)c2cc(C)cc3c2OCCCO3)[C@@H](O)C1` [compound 251], 30.9 nM.
The result for `Nc1cc2c(c(C(=O)NC[C@@H]3CCN(CCCCO)C[C@H]3O)c1)OCCO2` [compound 98] reads 14.8 nM.
The result for `CCCCN1CC[C@@H](CNC(=O)c2cc(C)cc3c2OCCCO3)[C@H](O)C1` [compound 164] reads 1 nM.
With `COCCCCN1CC[C@@H](CNC(=O)c2cc(N)c(Br)c3c2OCCO3)[C@H](O)C1` [compound 139], the IC50 was 39.8 nM.
Turning to `CS(=O)(=O)NCCN1CC[C@@H](CNC(=O)c2cc(N)c(Cl)c3c2OCCCO3)[C@H](O)C1` [compound 75], the IC50 is 30.9 nM.
With `CNc1cc2c(c(C(=O)NC[C@@H]3CCN(CCCCO)C[C@H]3O)c1)OCCO2` [compound 97], the IC50 is 15.8 nM.
The result for `CNCCCCN1CC[C@@H](CNC(=O)c2cc(NC)cc3c2OCCO3)[C@H](O)C1` [compound 90] reads 34.7 nM; that for `Cc1cc2c(c(C(=O)NC[C@@H]3CCN(CC4CC4)C[C@H]3O)c1)OCCCO2` [compound 218], 0.776 nM; that for `Nc1cc2c(c(C(=O)NC[C@@H]3CCN(CCCO)C[C@H]3O)c1)OCCCO2` [compound 112], 13.2 nM.
In the case of `CNc1cc2c(c(C(=O)NC[C@@H]3CCN(CCCOC4CCCCC4)C[C@H]3O)c1)OCCO2` [compound 40] it was 6.92 nM.
The result for `CNc1cc2c(c(C(=O)NC[C@@H]3CCN(Cc4ccc(F)cc4)C[C@H]3O)c1)OCCCO2` [compound 74] reads 214 nM; that for `CNc1cc2c(c(C(=O)NC[C@@H]3CCN(CCCCOC)C[C@H]3O)c1)OCCCO2` [compound 62], 81.3 nM; that for `CNc1cc2c(c(C(=O)NC[C@@H]3CCN(CCCOC(C)C)C[C@H]3O)c1)OCCCO2` [compound 101], 50.1 nM.
On to `CNCCCCN1CC[C@@H](CNC(=O)c2cc(CC#N)cc3c2OCCCO3)[C@H](O)C1` [compound 216], for which the IC50 is 44.7 nM.
The result for `COCCCCN1CC[C@@H](CNC(=O)c2cc(N)cc3c2OCCO3)[C@H](O)C1` [compound 41] reads 15.5 nM; that for `CC(=O)CCCN1CC[C@@H](CNC(=O)c2cc(C#N)cc3c2OCCCO3)[C@H](O)C1` [compound 223], 3.72 nM; that for `Cc1cc2c(c(C(=O)NCC3(O)CCN(CCCC(N)=O)CC3)c1)OCCCO2` [compound 253], 31.6 nM.
As to `N#CCc1cc2c(c(C(=O)NC[C@@H]3CCNC[C@H]3O)c1)OCCCO2` [compound 121], the IC50 is 708 nM.
In the case of `CC(=O)CCCN1CC[C@@H](CNC(=O)c2cc(N)cc3c2OCCCO3)[C@H](O)C1` [compound 60] it was 81.3 nM.
For the compound `Cc1cc2c(c(C(=O)NC[C@@H]3CCN(CCCCNc4nccnc4C)C[C@H]3O)c1)OCCCO2` [compound 231], the IC50 is 0.776 nM.
In the case of `Nc1cc2c(c(C(=O)NC[C@@H]3CCN(CCCO)C[C@H]3O)c1)OCCO2` [compound 117] it was 1.55 nM; in that of `CNc1cc2c(c(C(=O)NC[C@@H]3CCN(CC4CCCO4)C[C@H]3O)c1)OCCCO2` (stereo partly shown) [compound 21], 63.1 nM.
For `CC(=O)CCCN1CC[C@@H](CNC(=O)c2cc(N)c(Cl)c3c2OCCCO3)[C@H](O)C1` [compound 80], the IC50 was 7.59 nM.
The result for `CCNc1cc2c(c(C(=O)NC[C@@H]3CCN(CCC4OCCO4)C[C@H]3O)c1)OCCCO2` [compound 176] reads 16.2 nM.
The result for `CNCCCCN1CC[C@@H](CNC(=O)c2cc(OC)cc3c2OCCCO3)[C@H](O)C1` [compound 199] reads 12.3 nM; that for `COCc1cc2c(c(C(=O)NC[C@@H]3CCN(CCC4OCCO4)C[C@H]3O)c1)OCCCO2` [compound 126], 18.2 nM; that for `CS(=O)(=O)NCCN1CC[C@@H](CNC(=O)c2cc(N)cc3c2OCCCO3)[C@H](O)C1` [compound 99], 72.4 nM.
In the case of `CCCCNc1cc2c(c(C(=O)NC[C@@H]3CCN(CCC4OCCO4)C[C@H]3O)c1)OCCCO2` [compound 144] it was 112 nM; in that of `N#CCN1CC[C@@H](CNC(=O)c2cc(N)c(Cl)c3c2OCCCO3)[C@H](O)C1` [compound 82], 6170 nM; in that of `CNc1cc2c(c(C(=O)NC[C@@H]3CCN(CCOCCO)C[C@H]3O)c1)OCCCO2` [compound 67], 479 nM.
On to `COCCCCN1CC[C@@H](CNC(=O)c2cc(C)cc3c2OCCO3)[C@H](O)C1` [compound 248], for which the IC50 was 0.224 nM.
In the case of `CC(C)OCCCN1CC[C@@H](CNC(=O)c2cc(N)cc3c2OCCCO3)[C@H](O)C1` [compound 37] it was 36.3 nM; in that of `CCCCN1CC[C@@H](CNC(=O)c2cc(NCC)cc3c2OCCCO3)[C@H](O)C1` [compound 161], 85.1 nM.
In the case of `CC(C)OCCCN1CC[C@@H](CNC(=O)c2cc(N)cc3c2OCCO3)[C@H](O)C1` [compound 23] it was 19.1 nM; in that of `N#Cc1cc2c(c(C(=O)NC[C@@H]3CCNC[C@H]3O)c1)OCCCO2` [compound 175], 123 nM; in that of `Nc1cc(C(=O)NC[C@@H]2CCN(CCCC(=O)O)C[C@H]2O)c2c(c1Cl)OCCCO2` [compound 66], 282 nM.
In the case of `Nc1cc(C(=O)NC[C@@H]2CCN(CC3CCCO3)C[C@H]2O)c2c(c1Cl)OCCO2` (stereo partly shown) [compound 10], the IC50 is 6.03 nM.
Turning to `COCCCN1CC[C@@H](CNC(=O)c2cc(N)cc3c2OCCO3)[C@H](O)C1` [compound 109], the IC50 was 36.3 nM.
As to `Nc1cc(C(=O)NCC2CCN(CC3CCCO3)C[C@H]2O)c2c(c1Cl)OCCCO2` (stereo partly shown) [compound 51], the IC50 was 14.5 nM.
In the case of `Nc1cc2c(c(C(=O)NC[C@@H]3CCN(CCC4OCCO4)C[C@H]3O)c1)OCCO2` [compound 108] it was 25.7 nM; in that of `CCCCN1CC[C@@H](CNC(=O)c2cc(N)c(Br)c3c2OCCO3)[C@H](O)C1` [compound 153], 13.8 nM.
For the compound `Nc1cc2c(c(C(=O)NC[C@@H]3CCN(CCCOC4CCCCC4)C[C@H]3O)c1)OCCO2` [compound 85], the IC50 is 6.31 nM.
In the case of `CCCCN1CC[C@@H](CNC(=O)c2cc(COC)cc3c2OCCCO3)[C@H](O)C1` [compound 119] it was 8.91 nM.
Regarding `Nc1cc(C(=O)NC[C@@H]2CCN(Cc3ccc(F)cc3)C[C@H]2O)c2c(c1Cl)OCCCO2` [compound 78], the IC50 was 9.33 nM.
Regarding `N#CCCCN1CC[C@@H](CNC(=O)c2cc(N)c(Br)c3c2OCCCO3)[C@H](O)C1` [compound 145], the IC50 is 63.1 nM.
In the case of `CCCCN1CC[C@@H](CNC(=O)c2cc(N)c(Br)c3c2OCCCO3)[C@H](O)C1` [compound 181], the IC50 is 8.51 nM.
As for `CC(C)OCCCN1CC[C@@H](CNC(=O)c2cc(N)c(Cl)c3c2OCCCO3)[C@H](O)C1` [compound 96], the IC50 is 6.17 nM.
The result for `Cc1cc2c(c(C(=O)NC[C@@H]3CCN(CCCc4ccncc4)C[C@H]3O)c1)OCCCO2` [compound 232] reads 0.398 nM; that for `CCCCN1CC[C@@H](CNC(=O)c2cc(OC)cc3c2OCCCO3)[C@H](O)C1` [compound 195], 3.63 nM; that for `CCNc1cc2c(c(C(=O)NC[C@@H]3CCNC[C@H]3O)c1)OCCCO2` [compound 178], 1410 nM.
The result for `Cc1cc2c(c(C(=O)NC[C@@H]3CCN(CCCCCC(N)=O)C[C@H]3O)c1)OCCCO2` [compound 213] reads 2.63 nM; that for `N#Cc1cc2c(c(C(=O)NC[C@@H]3CCN(CCC4OCCO4)C[C@H]3O)c1)OCCCO2` [compound 170], 16.2 nM; that for `Cc1cc2c(c(C(=O)NC[C@@H]3CCN(CCCCOc4ccc(S(N)(=O)=O)cc4)C[C@H]3O)c1)OCCCO2` [compound 194], 0.589 nM.
The result for `Nc1cc(C(=O)NC[C@@H]2CCN(CC3CCCO3)C[C@H]2O)c2c(c1Br)OCCCO2` (stereo partly shown) [compound 152] reads 24 nM; that for `CNc1cc2c(c(C(=O)NC[C@@H]3CCN(CCCOC4CCCCC4)C[C@H]3O)c1)OCCCO2` [compound 34], 31.6 nM.

For the origin of these results see patent US7638535B2, “4-(aminomethyl)-piperidine benzamides as 5HT4-antagonists” (Janssen Pharmaceutica N.V., priority 2003, dated 2009).
